In PubChem BioAssay (NCI):
Where “and” joins values, the source holds several entries; their conditions need not be identical. Identical values can stand only once.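 48-hour exposure; five concentrations; linearly interpolated endpoints. GI50 marks 50% less growth. Definition used: TGI = concentration required for complete inhibition of growth.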

system: M14 melanoma; test: NCI anticancer screen, dose series, 48 h

Row | SMILES | GI50 | TGI
1 | CN1CCN(C(=O)OCc2nc3c(N4CCOCC4)nc(Cl)nc3n2C)CC1 | 1.19 µM | 2.65 µM
2 | COC(=O)[C@]12CC[C@@H](C)[C@H](C)[C@@H]1C1=CC[C@@H]3[C@@]4(C)C/C(=N\O)[C@H](O)[C@@]5(C)COC(=C45)C[C@@]3(C)[C@]1(C)CC2 | 14.2 µM | 27.7 µM
3 | Oc1c(CN2CCC(N3CCCCC3)CC2)cc(Cc2cc(CN3CCC(N4CCCCC4)CC3)c(O)c3ncccc23)c2cccnc12 | 1.11 µM | 2.75 µM
4 | Cn1c2ccccc2c2c(-c3ccccc3)[n+]3ccncc3nc21 | > 100 µM | > 100 µM
5 | C[C@@H]1OC(O)[C@@H](F)[C@H](O)[C@@H]1O (stereo partly drawn) | > 100 µM | > 100 µM
6 | COc1ccc(-c2cnnc3c(-c4cccc(C(F)(F)F)c4)cnn23)cc1 | > 100 µM | > 100 µM
7 | NC(=O)c1ccc(I)c(N)c1 | > 100 µM | > 100 µM
8 | C=CCCCCCCCCC(=O)[O][Sn]([CH2]CCC)([CH2]CCC)[CH2]CCC | 0.156 µM | 0.299 µM
9 | CC/C(=C(/c1ccc(O)cc1)c1ccc(OCCNC)cc1)c1ccccc1 | 1.69 µM | 3.31 µM
10 | O=C(/C(Br)=C/c1ccccc1)c1ccccc1 | 1.36 µM | 3.23 µM
11 | C=C1C(=O)O[C@H]2[C@H]1CC/C(Cn1cc(-c3ccc(OC)cc3)nn1)=C\CC[C@@]1(C)O[C@@H]21 | 1.3 µM | 3.09 µM
12 | O=C1CCCCN1CCCCC#Cc1ccccc1C#Cc1ccc([N+](=O)[O-])cc1 | 5.16 µM | 19.3 µM
13 | CCOc1cc2c(Cl)ncnc2c(OCC)c1OCC | 6.24 µM | 20.1 µM
14 | Oc1ccc2ccccc2c1N=Nc1nccs1 | 2.97 µM | 18.3 µM
15 | CC(=O)OCCN1c2ccccc2Sc2cnccc21 |  | > 10 µM
16 | CC(C)(CC(=O)Nc1ccccc1)C(=O)O |  | > 100 µM
17 | COc1ccc(/C(COc2c(-c3ccccc3)oc3ccccc3c2=O)=N\O)cc1 | 28.3 µM | > 50 µM
18 | Cn1c(=O)c2[nH]c(SCc3ccccn3)nc2n(C)c1=S |  | > 100 µM
19 | COc1cc2c(c(O)c1Br)C(=O)c1c(O)cc(C[C@H](C)O)cc1[C@H]2[C@H]1c2cc(C[C@H](C)O)cc(O)c2C(=O)c2c1cc(OC)c(Br)c2O | 11.4 µM and 20.9 µM | 45.8 µM and > 100 µM
20 | COc1ccc(-c2cc(=O)c3ccc(O)cc3o2)cc1OC |  | > 100 µM
21 | CC[C@]1(O)C[C@@H]2CN(CCc3c([nH]c4ccccc34)[C@@](C(=O)OC)(c3cc4c(cc3OC)N(C)[C@H]3[C@@](O)(C(=O)OC)[C@H](OC(C)=O)[C@]5(CC)C=CCN6CC[C@]43[C@@H]65)C2)C1 | < 0.01 µM | 4.31 µM
22 | N#CSc1c[nH]c2cccc(/C=C/C(=O)/C=C(/C=C/c3cccc4[nH]cc(SC#N)c34)OB(F)F)c12 | 0.558 µM | 3.08 µM
23 | COc1cc([N+](=O)[O-])cc2c3c(n(C)c12)[C@@]1(C)CCC2c4ccc(OCc5ccccc5)cc4CCC2C1C3 (stereo partly drawn) | > 100 µM | > 100 µM
24 | C=CC(=O)N1CC2(CCN(c3nc(OC4CCN(CCCOC)CC4)nc4c(OCC(F)(F)F)c(-c5c(C)ccc6[nH]ncc56)c(C5CC5)cc34)CC2)C1 | 2 µM | 3.97 µM
25 | CCC(C)c1c(Cl)nc(Cl)nc1Cl (stereo not drawn) |  | 3.43 µM
26 | C[C@]12CC[C@H]3[C@@H](CC=C4C[C@@H](O)CC[C@@]43C)[C@@H]1CC[C@@H]2N(CCO)CCO |  | > 100 µM
27 | CCN(CC)c1ccc(/C=C/c2ccc3cc(C)ccc3[n+]2CC)cc1 | 0.182 µM | 1.63 µM
28 | Cc1ccc2c(c1)[n+]([O-])c(N)n[n+]2[O-] |  | > 100 µM
29 | COC1/C=C\C=C(/C)C(=O)NC2=CC(=O)C(=O)C(=C2O)CC(C)CC(OC)C(O)C(C)/C=C(\C)C1OC(N)=O (stereo not drawn) |  | > 53.2 µM

system: HCC-2998 colon; test: NCI anticancer screen, dose series, 48 h

Row | SMILES | GI50 | TGI
30 | CN1CCN(C(=O)OCc2nc3c(N4CCOCC4)nc(Cl)nc3n2C)CC1 | 1.62 µM | 3.15 µM
31 | COC(=O)[C@]12CC[C@@H](C)[C@H](C)[C@@H]1C1=CC[C@@H]3[C@@]4(C)C/C(=N\O)[C@H](O)[C@@]5(C)COC(=C45)C[C@@]3(C)[C@]1(C)CC2 | 11.5 µM | 24.9 µM
32 | Oc1c(CN2CCC(N3CCCCC3)CC2)cc(Cc2cc(CN3CCC(N4CCCCC4)CC3)c(O)c3ncccc23)c2cccnc12 | 1.19 µM | 6.15 µM
33 | Cn1c2ccccc2c2c(-c3ccccc3)[n+]3ccncc3nc21 | > 100 µM | > 100 µM
34 | C[C@@H]1OC(O)[C@@H](F)[C@H](O)[C@@H]1O (stereo partly drawn) | > 100 µM | > 100 µM
35 | COc1ccc(-c2cnnc3c(-c4cccc(C(F)(F)F)c4)cnn23)cc1 | > 100 µM | > 100 µM
36 | NC(=O)c1ccc(I)c(N)c1 | > 100 µM | > 100 µM
37 | C=CCCCCCCCCC(=O)[O][Sn]([CH2]CCC)([CH2]CCC)[CH2]CCC | 0.156 µM | 0.291 µM
38 | CC/C(=C(/c1ccc(O)cc1)c1ccc(OCCNC)cc1)c1ccccc1 | 1.9 µM | 3.46 µM
39 | O=C(/C(Br)=C/c1ccccc1)c1ccccc1 | 6.8 µM | 19 µM
40 | C=C1C(=O)O[C@H]2[C@H]1CC/C(Cn1cc(-c3ccc(OC)cc3)nn1)=C\CC[C@@]1(C)O[C@@H]21 | 1.98 µM | 3.64 µM
41 | CCOc1cc2c(Cl)ncnc2c(OCC)c1OCC | 1.88 µM | 3.59 µM
42 | Oc1ccc2ccccc2c1N=Nc1nccs1 | 3.61 µM | 33.2 µM
43 | CC(=O)OCCN1c2ccccc2Sc2cnccc21 |  | > 10 µM
44 | COc1ccc(/C(COc2c(-c3ccccc3)oc3ccccc3c2=O)=N\O)cc1 | 8.42 µM | 22.3 µM
45 | COc1cc2c(c(O)c1Br)C(=O)c1c(O)cc(C[C@H](C)O)cc1[C@H]2[C@H]1c2cc(C[C@H](C)O)cc(O)c2C(=O)c2c1cc(OC)c(Br)c2O | 8.39 µM and 14.8 µM | 67.5 µM and > 100 µM
46 | COc1ccc(-c2cc(=O)c3ccc(O)cc3o2)cc1OC |  | > 100 µM
47 | CC[C@]1(O)C[C@@H]2CN(CCc3c([nH]c4ccccc34)[C@@](C(=O)OC)(c3cc4c(cc3OC)N(C)[C@H]3[C@@](O)(C(=O)OC)[C@H](OC(C)=O)[C@]5(CC)C=CCN6CC[C@]43[C@@H]65)C2)C1 | < 0.01 µM | 7.74 µM
48 | N#CSc1c[nH]c2cccc(/C=C/C(=O)/C=C(/C=C/c3cccc4[nH]cc(SC#N)c34)OB(F)F)c12 | 2.59 µM | 6.89 µM
49 | COc1cc([N+](=O)[O-])cc2c3c(n(C)c12)[C@@]1(C)CCC2c4ccc(OCc5ccccc5)cc4CCC2C1C3 (stereo partly drawn) | 47.9 µM | > 100 µM
50 | C=CC(=O)N1CC2(CCN(c3nc(OC4CCN(CCCOC)CC4)nc4c(OCC(F)(F)F)c(-c5c(C)ccc6[nH]ncc56)c(C5CC5)cc34)CC2)C1 | 2 µM | 4.64 µM
51 | Nc1nc(Cl)c2ncn(Cc3ccc(C45CC6CC(CC(C6)C4)C5)c(O)c3)c2n1 | 2.26 µM | 8.34 µM
52 | CCC(C)c1c(Cl)nc(Cl)nc1Cl (stereo not drawn) |  | 60.6 µM
53 | N#Cc1ccc(O)c(C2=NCC(c3cccc(Oc4ccccc4)c3)O2)c1 (stereo not drawn) | 0.881 µM | 57.8 µM
54 | CS(=O)(=O)c1ccc([C@H]2O[C@@H](CO)C[C@]2(O)c2ccc(S(C)(=O)=O)cc2)cc1 | > 100 µM | > 100 µM
55 | C[C@]12CC[C@H]3[C@@H](CC=C4C[C@@H](O)CC[C@@]43C)[C@@H]1CC[C@@H]2N(CCO)CCO |  | 94.9 µM
56 | CC(C)(C)OC(=O)N1CCc2c(sc3ncnc(N/N=C/c4cccc5ccccc45)c23)C1 | 12.9 µM | > 100 µM
57 | CCN(CC)c1ccc(/C=C/c2ccc3cc(C)ccc3[n+]2CC)cc1 | 0.197 µM | 15.3 µM

system: A549 NSCLC; test: NCI anticancer screen, dose series, 48 h

Row | SMILES | GI50 [µM] | TGI [µM]
58 | CN1CCN(C(=O)OCc2nc3c(N4CCOCC4)nc(Cl)nc3n2C)CC1 | 1.81 | 5.25
59 | COC(=O)[C@]12CC[C@@H](C)[C@H](C)[C@@H]1C1=CC[C@@H]3[C@@]4(C)C/C(=N\O)[C@H](O)[C@@]5(C)COC(=C45)C[C@@]3(C)[C@]1(C)CC2 | 10.4 | 24.4
60 | Oc1c(CN2CCC(N3CCCCC3)CC2)cc(Cc2cc(CN3CCC(N4CCCCC4)CC3)c(O)c3ncccc23)c2cccnc12 | 1.61 | 5.75
